# Test results reported in patent US6433012B1, “Method for inhibiting inflammatory disease” (Large Scale Biology Corp., priority 1998, dated 2002).
# Marks after values point to notes of the source that are not given here.
# Experiments:
# [1] = tested on: angiogenesis induced by hFGF-B in the chick chorioallantoic membrane (CAM); assay: Chick chorioallantoic membrane (CAM) assay, 14C-proline incorporation into collagenous protein; assay type: in vivo; set-up: inhibition of hFGF-B-induced angiogenesis: dose or concentration left out as unconfirmed
# Description: This example illustrates the anti-angiogenic properties of methyl-3,5-diiodo-4-(4′-methoxyphenoxy)benzoate in the chick chorioallantoic membrane assay (CAM). The endpoint of the CAM assay was a quantitative determination of basement membrane biosynthesis by measuring the incorporation of ^14C-proline into Type IV collagenous protein.
# The CAM assay involves the development of live chick embryos in Petri dishes under special sterile conditions. Therefore, only limited numbers of embryos can be used for evaluation of compounds in a single experiment. For this reason, two separate assays were conducted to test the three Biosource compounds at three concentrations per compound. In this assay, a known angiogenesis inhibitor, 2-methoxyestradiol (2-ME), was used as the positive control, and human fibroblast growth factor (hFGF) was used to induce angiogenesis in the CAM.
# For testing, a minimum amount of acetone-methanol (1:1) was added to the test compounds for sterilization. The acetone-methanol mixture was then evaporated to dryness in a sterile hood. The compounds were dissolved dimethyl sulfoxide (DMSO) first and then diluted with saline containing methylcellulose. The final concentrations were 2% DMSO and 0.5% methylcellulose. All test solutions were added to each CAM in […].
# Fresh fertile eggs were incubated for three days in a standard egg incubator. On Day 3, eggs were cracked under sterile conditions and embryos were placed in 20×100 mm plastic Petri dishes and cultivated at 37° C. in an embryo incubator with a water reservoir on the bottom shelf. Air was continuously bubbled into the water reservoir by using a small pump so that the humidity in the incubator was kept constant. Observations were made daily to ensure that all embryos were healthy. Dead or unhealthy embryos were removed from the incubator immediately to avoid contamination. On Day 9, a sterile silicone ring cup was placed on each CAM and […] of ^14C-proline with or without the test compound plus 2.5 ng of hFGF dissolved in saline containing 0.5% methylcellulose was delivered into each ring cup in a sterile hood. 2-ME was tested in parallel to serve as a reference compound. After addition of test materials, the embryos were returned to the incubator and cultivation continued. On Day 12, all embryos were transferred to a cold room at 4-10° C. The antiangiogenic effect of each test compound was determined by using the collagenase assay (Maragoudakis, et al., J. Pharm. Exp. Ther. 251:679-682 (1989)) to measure ^14C-proline incorporation into collagenous protein.
# With the embryos placed on ice, a piece of CAM 10 mm in diameter was cut off under each ring cup and placed in a separate tube. To each tube was added 1.0 mL of phosphate-buffered saline (PBS, pH 7.3) containing 0.11 mg cycloheximide and 0.17 mg dipyridyl. The tubes were placed in a boiling water bath for 10 min and then cooled to room temperature. The PBS in each tube was discarded after centrifugation at 3000× g for 10 min. The CAM residue was washed once with 3 mL of 15% TCA and then three times with 3 mL of 5% TCA. Centrifugation was carried out as described above between each washing. At this point all non-protein bound radioactivity was removed, and the CAM containing the newly synthesized ^14C-collagenous protein was suspended in 0.9 mL of 0.1 N NaOH and 1.1 mL of HEPES buffer at pH 7.4. The pH of the sample was neutralized with 0.8 N HCl, using phenol red as indicator.
# To digest the ^14C-collagenous protein, 7.5 units of collagenase and 500 nmol of calcium chloride in […] of HEPES buffer was added to the above samples, and mixtures were incubated at 37° C. for 4 h. The reaction was stopped by adding 1.0 mL of 20% TCA containing 5 mg of tannic acid into each tube. After vortex mixing, the samples were centrifuged at 3000× g for 10 min. […]
# MCF-7 cells = assay: Trypan blue exclusion assay (loss of membrane integrity); assay type: cell-based; conditions: 1 μM, 48 h of exposure
# HeLa cells = assay: Cellular microtubule networks; assay type: cell-based, human; conditions: 10 μM for 1 h
# [2] = Table 1 experiment, dose 8.3 μg/CAM
# [3] = Table 1 experiment, dose 25 μg/CAM
# [4] = Table 1 experiment, dose 75 μg/CAM
# [5] = Table 2 experiment, dose 8.3 μg/CAM
# [6] = Table 2 experiment, dose 25 μg/CAM
# [7] = Table 2 experiment, dose 75 μg/CAM
structure (smiles),measurement,setting,value
"COC(=O)c1cc(I)c(Oc2ccc(OC)cc2)c(I)c1 [BTO-956, methyl-3,5-diiodo-4-(4′-methoxyphenoxy)benzoate]",inhibition of hFGF-B-induced angiogenesis,[1],30%
same,% Inhibition,[1]; [2],0%
same,^14C-Proline Incorporated into Collagenous Protein (mean ± S.E.),[1]; [2],6884 ± 1395 cpm/mg-protien
same,% Inhibition,[1]; [3],19%
same,^14C-Proline Incorporated into Collagenous Protein (mean ± S.E.),[1]; [3],5098 ± 785 cpm/mg-protien
same,% Inhibition,[1]; [4],31%
same,^14C-Proline Incorporated into Collagenous Protein (mean ± S.E.),[1]; [4],4374 ± 651 cpm/mg-protien
same,% Inhibition,[1]; [5],10%
same,^14C-Proline Incorporated into Collagenous Protein (mean ± S.E.),[1]; [5],10138 ± 1625 cpm/mg-protien
same,% Inhibition,[1]; [6],18%
same,^14C-Proline Incorporated into Collagenous Protein (mean ± S.E.),[1]; [6],9100 ± 1664 cpm/mg-protien
same,% Inhibition,[1]; [7],32%
same,^14C-Proline Incorporated into Collagenous Protein (mean ± S.E.),[1]; [7],7534 ± 1099^a cpm/mg-protien
same,cytotoxicity by loss of membrane integrity (trypan blue exclusion),MCF-7 cells,substantial cytotoxicity
same,cellular microtubule networks,HeLa cells,aberrant microtubule networks
